Holding throughout (assay type): cell-based, Staphylococcus aureus
Assay [1] has as its system S. aureus 5812R. Briefly: microbe, parasite or virus in culture. Conditions: for MIC: 24 h; for Cross-resistance of S. aureus 5812R: susceptibility testing of gausemycin A-resistant strain; for Change of MIC / resistance of S. aureus 5812R compared to parent strain S. aureus FDA209P: ratio of MIC for 5812R and FDA209P. As for the experimental part:
(§1) Minimal inhibitory concentration (MIC) was determined as previously described in Fuchs et al. ([2000]), following the Clinical and Laboratory Standards Institute (CLSI) guidelines for broth microdilution MIC assay. The bacteria were incubated in a 96-well microtiter plate (Eppendorf, Germany) containing 90 μL of inoculum prepared in growth media at 10^6 CFU/ml with 10 μL of twofold dilutions of the antibiotics. The results were evaluated after 24 h of cultivation at 37 °C. The bacterial growth was assessed by scanning the absorbance data at 600 nm obtained by spectrophotometer (Multiscan GO, Thermo Fisher Scientific, US).

Assay [2] relates to S. aureus FDA209P. Put plainly: microbe, parasite or virus in culture. The conditions noted are these: broth microdilution (CLSI), 10^6 CFU/ml, 24 h, 37 °C, absorbance at 600 nm. The procedure: as §1
Assay [3] concerns S. aureus 5812R. Briefly: microbe, parasite or virus in culture. The conditions noted are these: 24 h; for MIC: Staphylococcus aureus, 5812R, read-out: MIC alone. The procedure:
The effect of gausemycin A in combination with other antibiotics was evaluated using the checkerboard technique with modifications (Nwabor et al., [2021]). Briefly, 80 μL of diluted bacterial suspension (10^6 CFU/mL) was added to wells containing 10 μL of sub-inhibitory concentrations of gausemycin A and 10 μL of sub-inhibitory concentrations of conventional antibiotics. The plates were incubated for 24 h at 37°C. The effects of the antimicrobial combination were defined according to the fractional inhibitory concentration index (FICI). The ΣFICs were calculated as follows:
where FIC A is the MIC of drug A in the combination/MIC of drug A alone; and FIC B is the MIC of drug B in the combination/MIC of drug B alone. The result was interpreted as FIC ≤ 0.5 = Synergism, FIC > 0.5 to 1 = additivity, FIC >1 to 2 = indifference, and FIC >2 antagonism.

Assay [4] concerns S. aureus FDA209P. Put plainly: Serial passaging in increasing concentrations of antimicrobials. Conditions: for The highest concentration of antibiotic allowing growth: Mueller-Hinton II broth (CaCl2 50 mg/L), 37 °C, 24 h. The procedure:
Gausemycin A-resistant variant was obtained by serial passaging as described previously (Pollard et al., [2012]). Isolated colonies of S. aureus FDA209P were inoculated into Mueller-Hinton II broth (CaCl2 50 mg/L) containing twofold dilutions of gausemycin A. The cultures were incubated at 37 °C with aeration for 24 h. After incubation, bacterial cells growing at the highest concentration of gausemycin A (below the MIC) were harvested and used for the next passage. The process was repeated for 20 passages. The dynamic of the developing resistance to gausemycin A was evaluated in comparison with daptomycin and ramoplanin. The experiments were performed in two independent series on separate days with three technical replicates each.

Setting [5] is: Staphylococcus aureus, read-out: MIC.
Setting [6] is: S. aureus 5812R, broth microdilution (CLSI), 10^6 CFU/ml, 37 °C, absorbance at 600 nm.

≈ marks a conversion by molar mass, not a printed value. Where two headings read alike, the source gives them in different places. Where no end group is shown, it is not given here.

Take `CC1(C)S[C@@H]2[C@H](NC(=O)[C@H](N)c3ccccc3)C(=O)N2[C@H]1C(=O)O` [Ampicillin]: the MIC against S. aureus 5812R [1] (Staphylococcus aureus, 5812R) is 1.25 µg/mL (≈ 3.58 µM); in the assay on S. aureus FDA209P [2] (setting [5]), 0.16 µg/mL (≈ 0.458 µM); with S. aureus 5812R [3], 1.25 µg/mL. The “MIC of Amp in combination” value with S. aureus 5812R [3] (S. aureus 5812R, combination Amp + GauA, checkerboard, 37 °C) stood at 0.63 µg/mL.
For the compound `Cc1nnc(SCC2=C(C(=O)O)N3C(=O)[C@@H](NC(=O)Cn4cnnn4)[C@H]3SC2)s1` [Cefazolin], the MIC is 0.4 µg/mL (≈ 0.88 µM) against S. aureus 5812R [1] (Staphylococcus aureus, 5812R) and 0.2 µg/mL (≈ 0.44 µM) in the assay on S. aureus FDA209P [2] (setting [5]). For the same compound, the “Cross-resistance of S. aureus 5812R” value with S. aureus 5812R [1] is reported as “cross-resistance”.
For `O=C(O)c1cn(C2CC2)c2cc(N3CCNCC3)c(F)cc2c1=O` [Ciprofloxacin], the “MIC of Cip in combination” value in the assay with S. aureus 5812R [3] (S. aureus 5812R, combination Cip+ GauA, checkerboard, 37 °C) came to 0.18 µg/mL.
Turning to `CNC(C)C1CCC(N)C(OC2C(N)CC(N)C(OC3OCC(C)(O)C(NC)C3O)C2O)O1` (centres unmarked) [Gentamicin], the MIC in the assay on S. aureus 5812R [1] (Staphylococcus aureus, 5812R) is 1.56 µg/mL (≈ 3.27 µM); in the assay with S. aureus FDA209P [2] (setting [5]), 0.2 µg/mL (≈ 0.419 µM); in the assay on S. aureus 5812R [3] it was 1.56 µg/mL. Moreover, the “Change of MIC / resistance of S. aureus 5812R compared to parent strain S. aureus FDA209P” value with S. aureus 5812R [1] worked out at 7.8 fold. Besides, in the assay on S. aureus 5812R [1], the “Cross-resistance of S. aureus 5812R” value is on record as “cross-resistance”. Also, the “MIC of Gen in combination” value in the assay with S. aureus 5812R [3] (S. aureus 5812R, combination Gen+ GauA, checkerboard, 37 °C) was determined as 0.75 µg/mL.
Regarding `CN(C)[C@@H]1C(O)=C(C(N)=O)C(=O)[C@@]2(O)C(O)=C3C(=O)c4c(O)cccc4[C@@](C)(O)[C@H]3C[C@@H]12` [Tetracycline], the MIC against S. aureus 5812R [1] (Staphylococcus aureus, 5812R) came to 0.94 µg/mL (≈ 2.12 µM); in the assay on S. aureus FDA209P [2] (setting [5]) it was 0.47 µg/mL (≈ 1.06 µM). Besides, the “Cross-resistance of S. aureus 5812R” value in the assay with S. aureus 5812R [1] was “cross-resistance”.
In the assay with S. aureus 5812R [1] (setting [6]), `CN[C@H](CC(C)C)C(=O)N[C@H]1C(=O)N[C@@H](CC(N)=O)C(=O)N[C@H]2C(=O)N[C@H]3C(=O)N[C@H](C(=O)N[C@H](C(=O)O)c4cc(O)cc(O)c4-c4cc3ccc4O)[C@H](O)c3ccc(c(Cl)c3)Oc3cc2cc(c3O[C@@H]2O[C@H](CO)[C@@H](O)[C@H](O)[C@H]2O[C@H]2C[C@](C)(N)[C@H](O)[C@H](C)O2)Oc2ccc(cc2Cl)[C@H]1O` [Vancomycin] came in with an MIC of 0.78 µg/mL (≈ 0.538 µM). In addition, in the assay on S. aureus 5812R [1], the “Change of MIC / resistance of S. aureus 5812R compared to parent strain S. aureus FDA209P” value is recorded as “did not differ” and the “Cross-resistance of S. aureus 5812R” value is on record as “absent”. This compound returned an MIC in the assay on S. aureus FDA209P [2] of 0.78 µg/mL (≈ 0.538 µM).
In turn, “Nisin (ITSISLCTPGCKTGALMGCNMKTATCHCSIHVSK; not fully specified (some residues, bridges); cysteine pairing not given here; UniProt P13068 24-57, looked up)” registered an MIC against S. aureus 5812R [1] (setting [6]) of 7.8 µg/mL. Further, in the assay with S. aureus 5812R [1], the “Change of MIC / resistance of S. aureus 5812R compared to parent strain S. aureus FDA209P” value is reported as “did not differ” and the “Cross-resistance of S. aureus 5812R” value was “absent”. Moreover, the MIC with S. aureus FDA209P [2] amounted to 7.8 µg/mL.
Turning to Ramoplanin, the “The highest concentration of antibiotic allowing growth” value (“The highest concentration” for short) with S. aureus FDA209P [4] (passage 1) came to 3.12 µg/mL; in the assay on S. aureus FDA209P [4] (passage 2) it was 6.25 µg/mL; with S. aureus FDA209P [4] (passage 3), 6.25 µg/mL; with S. aureus FDA209P [4] (passage 4), 12.5 µg/mL; with S. aureus FDA209P [4] (passage 5), 50 µg/mL; in the assay with S. aureus FDA209P [4] (passage 6), 50 µg/mL. For the same compound, the “The highest concentration” value in the assay on S. aureus FDA209P [4] (passage 7) was 50 µg/mL; in the assay with S. aureus FDA209P [4] (passage 8), 100 µg/mL; in the assay on S. aureus FDA209P [4] (passage 9), 100 µg/mL; with S. aureus FDA209P [4] (passage 10), 100 µg/mL; in the assay with S. aureus FDA209P [4] (passage 11) it was above 100 µg/mL; with S. aureus FDA209P [4] (passage 12), above 100 µg/mL. Moreover, the “The highest concentration” value in the assay with S. aureus FDA209P [4] (passage 13), with S. aureus FDA209P [4] (passage 14), in the assay on S. aureus FDA209P [4] (passage 15), with S. aureus FDA209P [4] (passage 16), in the assay with S. aureus FDA209P [4] (passage 17) and with S. aureus FDA209P [4] (passage 18) was above 100 µg/mL each time. The “The highest concentration” value in the assay with S. aureus FDA209P [4] (passage 19) and with S. aureus FDA209P [4] (passage 20) was above 100 µg/mL in each case. For the same compound, the “Number of passages within which resistance was formed” value with S. aureus FDA209P [4] (serial passages with sub-inhibitory concentrations) is at most 10 passages. Further, the MIC against S. aureus 5812R [1] (setting [6]) and in the assay on S. aureus FDA209P [2] was 3.12 µg/mL each time. Besides, the “Change of MIC / resistance of S. aureus 5812R compared to parent strain S. aureus FDA209P” value in the assay with S. aureus 5812R [1] is “did not differ”. The “Cross-resistance of S. aureus 5812R” value in the assay on S. aureus 5812R [1] is recorded as “absent”.

The record behind these values is publication PMC9558223, “Staphylococcus aureus is able to generate resistance to novel lipoglycopeptide antibiotic gausemycin A” (Frontiers in Microbiology, 2022).
